The test system of experiment [1] is dermal fibroblast mitochondria. Nature of the experiment: Mitochondrial membrane potential, JC-1 marking, with or without H2O2 or UVB stress. It counts as cell-based, human. The method, then:
The aim of this study was to determine the protective effect of the SEQ ID No. 2 peptide with respect to dermal fibroblast mitochondria subjected to an oxidative stress caused by oxygenated water (H2O2) or UVB irradiation. A marker for the membrane potential of mitochondria (JC-1) was used for this. JC-1 is a marker that emits different fluorescences depending on the level of polarization of the mitochondrial membrane.
Protocol: Human dermal fibroblasts were treated with a 1% solution of a 50-ppm SEQ ID No. 2 peptide mother-solution for 96 hours and then subjected to an oxidative stress caused by 2 mM of H2O2 for 30 min. or to UVB irradiation at 50 mJ/cm^2. Controls not treated with the peptide or H2O2 or not irradiated were performed under the same conditions. At the end of the experiment, the cells were washed, fixed, and subjected to marking with a 0.2 μg/ml solution of JC-1 (Molecular Probes®) in order to disclose the membrane potential of the mitochondria.

Experiment [2] has as its system cytochrome C. Nature of the experiment: Expression of cytochrome C by immunotransfer (Western Blot). The experiment is classed as cell-based. Conditions: human dermal fibroblasts; 1% solution of a 50-ppm mother-solution; 72 hours. As for the experimental part:
The aim of this study was to determine the effect of the SEQ ID No. 2 peptide on the expression of cytochrome C. For this, the quantity of cytochrome C was evaluated by the immunotransfer (or Western Blot) technique.
Protocol: Human dermal fibroblasts were treated with a 1% solution of a 50-ppm SEQ ID No. 2 peptide mother-solution for 72 hours. The cells were then lysed and homogenized by sonication, then centrifuged for 10 minutes at 1000 g. The samples, standardized for their protein concentration (BCA measurement kit, Pierce) were subjected to electrophoresis on 4-12% bis-tris gel (Invitrogen). After electro-transfer, the membranes were incubated overnight with an anticytochrome C antibody, diluted to 1/500 (mouse monoclonal anti-cytochrome C, Tebu). A secondary antibody, coupled to the peroxidase and diluted to 1/5000 was then used (peroxidase conjugated F(ab′)2, goat antimouse, Immunotech). The chemiluminescent signal was then quantified using the Supersignal West Femto Trial kit and read in a reading chamber (MultiImage Light Cabinet, Immunotech Corporation).

Experiment [3] concerns cytochrome oxidase. Nature of the experiment: Enzymatic activity of cytochrome oxidase (Cytocox 1 kit) in treated fibroblasts. It counts as cell-based. Conditions: normal human fibroblasts, 1% solution of a 50-ppm solution, compared with untreated cells. As for the experimental part:
The aim of this study was to determine the effect of the SEQ ID No. 2 peptide on mitochondrial activity. For this, the total enzymatic (mitochondrial) activity of cytochrome oxidase was measured.
Protocol: Normal human fibroblasts were treated with a 1% solution of a 50-ppm solution containing the SEQ ID No. 2 peptide, representative of the peptide family according to the invention, for 3 hours and 24 hours. The cells were collected, rinsed, and then lysed by sonication. A first centrifuging was performed to eliminate the principal cellular debris, and the supernatant was then centrifuged again at 10,000 g for 10 minutes. The enzymatic activity was measured in the supernatant and/or in the second residue, by a biochemical method using the Cytocox 1 kit (Sigma-Aldrich), then standardized for protein content (measured with the BCA kit, Pierce).

For experiment [4], the system named is Dermal fibroblasts. Nature of the experiment: Synthesis of intracellular ATP (ATP Bioluminescence Assay Kit HS II). The experiment is classed as cell-based. Conditions: 1% solution of a 50 ppm peptide solution, compared to untreated cells. As for the experimental part:
Protocol: This study was conducted using an ATP Bioluminescence Assay Kit HS II (Roche Applied Science). Dermal fibroblasts were treated with a 1% solution of a 50 ppm solution containing the SEQ ID No. 2 peptide, representative of the peptide family according to the invention, for a period of 1 to 3 hours. At the end of incubation, the tubes were rinsed with 2 ml of cold PBS before adding 250 μl of a lysis buffer provided in the kit. The cells of each tubes were then scraped up and collected in 14-ml tubes. Each tube was rinsed with 2×500 μl of cold PBS and the whole was collected again in the respective tubes. […] The ATP measurement was performed on these samples: 50 μl of this dilution was placed in a Luma cuvette and […]. After 10 seconds, the luminescence reading was begun. The values were standardized relative to the quantity of proteins for each sample. The measurements were made using the Biocounter M2010A Luma®/3M equipment.

Ends that are not written are not given here.

For “Tyr-Leu-Lys-Lys-Ala-NH2 (YLKKA-NH2) [SEQ ID No. 2]”, the “mitochondrial membrane potential (JC-1 red fluorescence) under stress” value in experiment [1] (peptide for 96 hours, then 2 mM H2O2 for 30 min or UVB 50 mJ/cm^2) is given as “more marked red fluorescence”. Besides, the “mitochondrial membrane potential (JC-1 red fluorescence)” value in experiment [1] (unstressed human dermal fibroblasts, 1% solution of a 50-ppm mother-solution, 96 hours) was “elevated membrane potential, greater than in the control cells”. In experiment [2], the “expression of cytochrome C” value is recorded as “clear increase”. In addition, the entries for the “increase in enzymatic activity of cytochrome oxidase” value in experiment [3] (24 hours after application) and in experiment [3] (after 3 hours) were 750% and 150%, respectively. The “increase in the amount of intracellular ATP” value in experiment [4] (after 3 hours) came to 27%; in experiment [4] (after one hour), 41%.

(Values after US20110123466A1, “PHARMACEUTICAL AND/OR COSMETIC COMPOSITION CONTAINING AN ACTIVE PRINCIPLE ACTIVATOR OF CYTOCHROME C” (SOCIETE D'EXTRACTION DES PRINCIPES ACTIFS S.A (ISP …, priority 2007, published 2011).)
